Values joined by “and” are separate entries in the source; they are usually repeats but may differ in a detail not shown here. Equal values may be shown once. Read-outs that look alike come from different tables or passages of the source.

We go through 17 molecules from US9533965B2, “2-arylbenzofuran-7-formamide compounds, preparation method and use thereof” (SHANGHAI INSTITUTE OF MATERIA MEDICA, CHINESE ACADEMY OF …, priority 2012, dated 2017).

The subject of one series is wild type cell line V79. The series can be described thus: In vitro cell proliferation inhibition (MTT), V79 cells. Format: cell-based, Chinese hamster. To be noted: Cricetulus griseus, read-out: V79 cell IC50.
Series [1] concerns Chinese hamster lung fibroblast cell line VC8 (BRCA2−/−). Description: In vitro cell proliferation inhibition (MTT), VC8 cells. To be noted: read-out: VC8 cell IC50. It is filed as cell-based.
The conditions of series [2]: compound during phase II clinical trials; cited from earlier work.
A further series addresses PARP1 (Homo sapiens, UniProt P09874). Description: PARP1 enzymatic inhibition at molecular levels (ELISA). To be noted: ELISA IC50, PARP1 enzyme, molecular level.
Setting [3] is: Cricetulus griseus, V-C8, 72 h, MTT, 72 h, VC8 (BRCA2−/−).

Chain of PARP1 (P09874 whole entry): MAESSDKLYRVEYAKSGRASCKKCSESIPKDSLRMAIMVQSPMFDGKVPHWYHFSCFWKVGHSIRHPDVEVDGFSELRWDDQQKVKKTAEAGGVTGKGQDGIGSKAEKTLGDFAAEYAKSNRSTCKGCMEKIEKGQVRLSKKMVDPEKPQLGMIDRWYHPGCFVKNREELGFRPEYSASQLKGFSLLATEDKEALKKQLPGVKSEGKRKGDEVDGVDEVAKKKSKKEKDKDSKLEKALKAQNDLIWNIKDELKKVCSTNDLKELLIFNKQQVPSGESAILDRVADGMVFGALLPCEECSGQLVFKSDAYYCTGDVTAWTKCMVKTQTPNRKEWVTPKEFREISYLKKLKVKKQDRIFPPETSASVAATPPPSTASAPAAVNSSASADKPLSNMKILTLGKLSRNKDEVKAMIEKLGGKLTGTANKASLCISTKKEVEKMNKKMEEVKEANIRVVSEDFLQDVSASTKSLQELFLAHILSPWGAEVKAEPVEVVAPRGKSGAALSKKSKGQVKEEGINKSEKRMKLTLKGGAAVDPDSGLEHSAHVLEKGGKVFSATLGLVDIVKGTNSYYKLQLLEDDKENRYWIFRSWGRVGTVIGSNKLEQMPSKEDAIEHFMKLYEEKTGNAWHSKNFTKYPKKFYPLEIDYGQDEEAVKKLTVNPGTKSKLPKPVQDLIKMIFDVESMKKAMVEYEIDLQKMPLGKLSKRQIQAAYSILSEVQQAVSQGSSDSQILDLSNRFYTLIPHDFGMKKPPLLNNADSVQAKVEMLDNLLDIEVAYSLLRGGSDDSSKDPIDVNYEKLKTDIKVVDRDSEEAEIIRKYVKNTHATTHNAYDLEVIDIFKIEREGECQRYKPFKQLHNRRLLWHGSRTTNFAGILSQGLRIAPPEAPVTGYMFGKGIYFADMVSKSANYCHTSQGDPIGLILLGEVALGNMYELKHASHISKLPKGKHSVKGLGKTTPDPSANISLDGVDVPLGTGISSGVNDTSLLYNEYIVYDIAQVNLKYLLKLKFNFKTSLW

On to `NC(=O)c1cc(F)cc2cc(-c3ccc(CN4CCCC4)cc3)oc12` [5f, 5-fluoro-2-{4-[(pyrrolidin-1-yl)methyl]phenyl}benzofuran-7-carboxamide], for which the IC50 in the series on wild type cell line V79 (MTT, 72 h, wild type V79) was over 10000 nM; in series [1] (setting [3]) it was 3360 nM; in series [1] (MTT, 72 h, VC8 (BRCA2−/−)) it was 2620 nM.
In the case of `O=C(c1cc(Cc2n[nH]c(=O)c3ccccc23)ccc1F)N1CCN(C(=O)C2CC2)CC1` [AZD2281, Olaparib, reference compound], the concentration for half-maximal inhibition (IC50) with wild type cell line V79 (V79, 72 h) was over 10000 nM; in series [1] (Cricetulus griseus, V-C8, 72 h), 820 ± 330 nM. In series [2], the “oral bioavailability of rats” value is 11.1%.
In the case of `CN(C)Cc1ccc(-c2cc3cc(F)cc(C(N)=O)c3o2)cc1` [compound 5a, 5-fluoro-2-{4-[(dimethylamino)methyl]phenyl}benzofuran-7-carboxamide], the IC50 with wild type cell line V79 (MTT, 72 h, wild type V79) is over 10000 nM; in series [1] (setting [3]) it was 750 ± 100 nM; against PARP1, 11.8 ± 8.9 nM.
Consider `CNCc1ccc(-c2cc3cc(F)cc(C(N)=O)c3o2)cn1` [compound 5c, 5-fluoro-2-{6-[(methylamino)methyl]-3-pyridyl}benzofuran-7-carboxamide], for which the IC50 was over 10000 nM in the series on wild type cell line V79 (MTT, 72 h, wild type V79); 37 nM and 34.2 nM and 72 nM at PARP1.
On to `CNCc1ccc(-c2cc3cc(F)cc(C(N)=O)c3o2)nc1` [compound 5d, 5-fluoro-2-{5-[(methylamino)methyl]-2-pyridyl}benzofuran-7-carboxamide], for which the IC50 was over 10000 nM in the series with wild type cell line V79 (MTT, 72 h, wild type V79); 3270 nM in series [1] (setting [3]); 1740 nM in series [1] (MTT, 72 h, VC8 (BRCA2−/−)); 23 nM and 27.9 nM and 58 nM on PARP1.
`CNCc1ccc(-c2cc3cc(F)cc(C(N)=O)c3o2)cc1F` [compound 5e, 5-fluoro-2-{4-[(methylamino)methyl]-3-fluorophenyl}benzofuran-7-carboxamide]: the IC50 is over 10000 nM in the series on wild type cell line V79 (MTT, 72 h, wild type V79); 2080 nM in series [1] (setting [3]); 1510 nM in series [1] (MTT, 72 h, VC8 (BRCA2−/−)); 14.8 nM and 20.8 nM and 74 nM against PARP1.
Take `CN1CCN(Cc2ccc(-c3cc4cc(F)cc(C(N)=O)c4o3)cc2)CC1` [compound 5g, 5-fluoro-2-{4-[(4-methyl-1-piperazino)methyl]phenyl}benzofuran-7-carboxamide]: the IC50 with wild type cell line V79 (MTT, 72 h, wild type V79) was over 10000 nM; in series [1] (setting [3]) it was 2080 nM; in series [1] (MTT, 72 h, VC8 (BRCA2−/−)), 2140 nM; on PARP1, 83 nM and 105 nM and 187 nM.
On to `NC(=O)c1cc(F)cc2cc(-c3ccc(CN4CCCCC4)cc3)oc12` [compound 5h, 5-fluoro-2-{4-[(piperidin-1-yl)methyl]phenyl}benzofuran-7-carboxamide], for which the half-maximal inhibitory concentration (IC50) in the series on wild type cell line V79 (MTT, 72 h, wild type V79) is over 10000 nM; in series [1] (setting [3]), 2600 nM; in series [1] (MTT, 72 h, VC8 (BRCA2−/−)) it was 2010 nM.
On to `CN1CCCN(Cc2ccc(-c3cc4cc(F)cc(C(N)=O)c4o3)cc2)CC1` [compound 5i, 5-fluoro-2-{4-[(4-methyl-1-homopiperazino)methyl]phenyl}benzofuran-7-carboxamide], for which the IC50 in the series on wild type cell line V79 (MTT, 72 h, wild type V79) was over 10000 nM; on PARP1, 104 nM and 101 nM and 207 nM.
For the molecule `NC(=O)c1cc(F)cc2cc(-c3ccc(CN4CCOCC4)cc3)oc12` [compound 5j, 5-fluoro-2-{4-[(1-morpholinyl)methyl]phenyl}benzofuran-7-carboxamide], the concentration for half-maximal inhibition (IC50) in the series with wild type cell line V79 (MTT, 72 h, wild type V79) was over 10000 nM.
As for `NC(=O)c1cc(F)cc2cc(-c3ccc(CN4CCSCC4)cc3)oc12` [compound 5k, 5-fluoro-2-{4-[(thiomorpholino)methyl]phenyl}benzofuran-7-carboxamide], the IC50 with wild type cell line V79 (MTT, 72 h, wild type V79) was over 10000 nM; in series [1] (setting [3]) it was over 10000 nM; against PARP1, 1060 nM and 2060 nM and 1520 nM.
On to `NC(=O)c1cc(F)cc2cc(-c3ccc(CNC4CCNCC4)cc3)oc12` [compound 5l, 5-fluoro-2-{4-[(4-piperidyl)aminomethyl]phenyl}-benzofuran-7-carboxamide], for which the IC50 was over 10000 nM in the series on wild type cell line V79 (MTT, 72 h, wild type V79); 8310 nM in series [1] (setting [3]); 8220 nM in series [1] (MTT, 72 h, VC8 (BRCA2−/−)); 182 nM and 107 nM and 393 nM on PARP1.
On to `NC(=O)c1cc(F)cc2cc(-c3ccc(CN[C@@H]4CCOC4)cc3)oc12` [compound 5m, (R)-5-fluoro-2-{4-[(3-tetrahydrofurylamino)methyl]phenyl}benzofuran-7-carboxamide], for which the IC50 in the series on wild type cell line V79 (MTT, 72 h, wild type V79) was over 10000 nM; in series [1] (setting [3]), 1150 nM; in series [1] (MTT, 72 h, VC8 (BRCA2−/−)) it was 1180 nM; at PARP1 it was 49 nM and 9.5 nM and 17 nM.
With `NC(=O)c1cc(F)cc2cc(-c3ccc(CNC4CC4)cc3)oc12` [compound 5n, 5-fluoro-2-[4-(cyclopropylaminomethyl)phenyl]benzofuran-7-carboxamide], the IC50 is over 10000 nM in the series on wild type cell line V79 (MTT, 72 h, wild type V79); 18 nM and 31 nM and 73 nM against PARP1.
Turning to `CC(C)NCc1ccc(-c2cc3cc(F)cc(C(N)=O)c3o2)cc1` [compound 5o, 5-fluoro-2-[4-(isopropylaminomethyl)phenyl]benzofuran-7-carboxamide], the IC50 with wild type cell line V79 (MTT, 72 h, wild type V79) is over 10000 nM; in series [1] (setting [3]) it was 1090 nM; in series [1] (MTT, 72 h, VC8 (BRCA2−/−)), 941 nM; against PARP1 it was 32 nM and 18.8 nM and 25 nM.
On to `CNCc1ccc(-c2cc3cc(F)cc(C(N)=O)c3o2)c(F)c1` [compound 5p, 5-fluoro-2-{4-[(methylamino)methyl]-2-fluorophenyl}benzofuran-7-carboxamide], for which the IC50 was over 10000 nM in the series with wild type cell line V79 (MTT, 72 h, wild type V79); 1360 nM in series [1] (setting [3]); 1620 nM in series [1] (MTT, 72 h, VC8 (BRCA2−/−)); 22 nM and 8.9 nM and 40 nM on PARP1.
Regarding `CN(C)Cc1ccc(-c2oc3c(C(N)=O)cc(F)cc3c2Cl)cc1` [compound 7a, 3-chloro-5-fluoro-2-{4-[(dimethylamino)methyl]phenyl}benzofuran-7-carboxamide], the IC50 on PARP1 turned out to be 9250 nM.
